One test has as its target T1, BTK (Homo sapiens, UniProt Q06187).
T1 construct: the BTK open reading frame (ORF) was first shuttled from a pcDNA-DEST40-BTK vector; expressed in transfected cells; host or cells: HEK293A (Invitrogen R70507), lentiviral transduction, blasticidin selection
The test can be described thus: BTK-GFP protein abundance flow cytometry assay in HEK293A. The following applies: for BTK degradation Amax: % protein remaining at the concentration at which maximum degradation is seen, HEK293A; for BTK degradation Amax / DC50: 24 h; for DC50: concentration at which 50% maximal degradation was observed, HEK293A BTK-GFP sensor cells. Format: cell-based. The gist of the method:
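HEK293A cells stably expressing bicistronic BTK-GFP-iresRFP were treated 24 h at 37° C with 10-point 1:3 dilutions from 10 μM, DMSO at 0.1%. GFP was read by flow cytometry as median of 5,000 single cells, scaled between RFP-only cells (0%) and DMSO controls (100%). DC50 = concentration at 50% degradation; Amax = % protein remaining at maximal degradation.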

In another test the target is CRBN (Homo sapiens, UniProt Q96SW2). The test can be described thus: CRBN displacement assay Format 1 (fluorescence polarization, BodipyFL-lenalidomide probe Compound HH). The test is classed as binding. The essentials: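 Compound and CRBN protein (nominally 100 nM) were preincubated for 45 min at room temperature before a 5 nM BodipyFL-lenalidomide probe started competition, with 0.9% DMSO final. Polarization was measured 45 min later, exciting at 485 nm and reading 520 nm. AC50 came from a logistic fit with Hill coefficient.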
Background: Polarisation of emitted light reports the rotation of a fluorescent probe.

“Also recorded” adds a separate entry of the source. Bounds are passed on as bounds.

CRBN, sequence (Q96SW2 whole entry): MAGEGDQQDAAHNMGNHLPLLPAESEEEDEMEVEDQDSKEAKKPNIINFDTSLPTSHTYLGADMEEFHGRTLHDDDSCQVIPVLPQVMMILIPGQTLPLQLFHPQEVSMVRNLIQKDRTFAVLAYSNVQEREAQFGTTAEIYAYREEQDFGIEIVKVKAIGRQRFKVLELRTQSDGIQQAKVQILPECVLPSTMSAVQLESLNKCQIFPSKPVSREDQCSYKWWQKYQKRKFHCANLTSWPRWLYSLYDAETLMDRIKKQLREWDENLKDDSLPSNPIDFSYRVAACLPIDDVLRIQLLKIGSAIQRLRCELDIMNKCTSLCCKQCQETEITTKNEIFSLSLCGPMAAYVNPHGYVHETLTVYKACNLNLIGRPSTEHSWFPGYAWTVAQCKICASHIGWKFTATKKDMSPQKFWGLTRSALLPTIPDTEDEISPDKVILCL
T1 sequence (Q06187 whole entry): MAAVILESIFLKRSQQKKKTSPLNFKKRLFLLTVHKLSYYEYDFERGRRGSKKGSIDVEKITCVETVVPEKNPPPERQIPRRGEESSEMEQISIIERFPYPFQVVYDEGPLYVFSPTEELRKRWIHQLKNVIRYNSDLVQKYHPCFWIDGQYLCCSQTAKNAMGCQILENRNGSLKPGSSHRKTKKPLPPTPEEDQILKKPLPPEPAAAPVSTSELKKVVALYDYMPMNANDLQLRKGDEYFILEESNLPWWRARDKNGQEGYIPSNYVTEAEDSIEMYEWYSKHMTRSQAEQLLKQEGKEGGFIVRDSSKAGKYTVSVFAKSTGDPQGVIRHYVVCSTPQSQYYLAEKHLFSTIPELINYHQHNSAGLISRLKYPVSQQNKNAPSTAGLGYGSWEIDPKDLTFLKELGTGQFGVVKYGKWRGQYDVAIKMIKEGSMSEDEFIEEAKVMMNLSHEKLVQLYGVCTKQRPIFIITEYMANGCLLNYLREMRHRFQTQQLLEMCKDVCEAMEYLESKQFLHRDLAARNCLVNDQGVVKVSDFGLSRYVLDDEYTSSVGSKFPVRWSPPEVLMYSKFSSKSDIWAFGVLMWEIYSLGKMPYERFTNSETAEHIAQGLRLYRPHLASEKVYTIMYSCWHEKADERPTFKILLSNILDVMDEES

Broadly, the DC50 is the concentration giving 50% degradation. Usually AC50 stands for the concentration at which the activity in the assay is half-maximal. Higher therefore signals activity only at high concentration. On to `Cc1c(NC(=O)c2ccc(C(C)(C)O)cc2F)cc(F)cc1-c1ncnc2[nH]c(-c3ccc(CNCCN4CCC(Oc5ccc(N6CCC(=O)NC6=O)cc5)CC4)cc3)cc12` [Compound 29, N-(3-(6-(4-(((2-(4-(4-(2,4-dioxotetrahydropyrimidin-1(2H)-yl)phenoxy)piperidin-1-yl)ethyl)amino)methyl)phenyl)-7H-pyrrolo[2,3-d]pyrimidin-4-yl)-5-fluoro-2-methylphenyl)-2-fluoro-4-(2-hydroxypropan-2-yl)benzamide], for which, on BTK, the “BTK degradation Amax” value is 40.5% and the DC50 stood at 40.2 nM. The same compound returned an AC50 at CRBN of 2390 nM.
Turning to `COc1ccc(C(=O)N2CCOC3(CCN(Cc4ccc(-c5cc6c(-c7cc(F)cc(NC(=O)c8ccc(C(C)(C)O)cc8F)c7C)ncnc6[nH]5)cc4)CC3)C2)cc1N1CCC(=O)NC1=O` [Compound 01, N-(3-(6-(4-((4-(3-(2,4-dioxotetrahydropyrimidin-1(2H)-yl)-4-methoxybenzoyl)-1-oxa-4,9-diazaspiro[5.5]undecan-9-yl)methyl)phenyl)-7H-pyrrolo[2,3-d]pyrimidin-4-yl)-5-fluoro-2-methylphenyl)-2-fluoro-4-(2-hydroxypropan-2-yl)benzamide], at BTK, the “BTK degradation Amax” value is on record as 98% and the 50% degradation concentration (DC50) was over 3330 nM. At BTK (extent of BTK degradation as stated in the text), the “BTK degradation” value is “no significant BTK degradation was observed; also recorded: no degradation of BTK was observed”. Also, at CRBN, the half-maximal activity concentration (AC50) came out at 1590 nM.
Consider `Cc1c(NC(=O)c2ccc(C(C)(C)O)cc2F)cc(F)cc1-c1ncnc2[nH]c(-c3ccc(CN4CCC(CCNC(=O)COc5cccc(N6CCC(=O)NC6=O)c5)CC4)cc3)cc12` [Compound 11, N-(3-(6-(4-((4-(2-(2-(3-(2,4-Dioxotetrahydropyrimidin-1(2H)-yl)phenoxy)acetamido)ethyl)piperidin-1-yl)methyl)phenyl)-7H-pyrrolo[2,3-d]pyrimidin-4-yl)-5-fluoro-2-methylphenyl)-2-fluoro-4-(2-hydroxypropan-2-yl)benzamide], for which, on BTK, the “BTK degradation Amax” value stood at 2.3% and the DC50 is 2.2 nM. On CRBN, this compound gave an AC50 of 599 nM.
As to `Cc1c(NC(=O)c2ccc(C(C)(C)O)cc2F)cc(F)cc1-c1ncnc2[nH]c(C3=CCN(C(=O)CCCCN4CCC(Oc5ccc(N6CCC(=O)NC6=O)cc5)CC4)CC3)cc12` [Compound 27, N-(3-(6-(1-(5-(4-(4-(2,4-Dioxotetrahydropyrimidin-1(2H)-yl)phenoxy)piperidin-1-yl)pentanoyl)-1,2,3,6-tetrahydropyridin-4-yl)-7H-pyrrolo[2,3-d]pyrimidin-4-yl)-5-fluoro-2-methylphenyl)-2-fluoro-4-(2-hydroxypropan-2-yl)benzamide], at BTK, the “BTK degradation Amax” value was found to be 21.7% and the 50% degradation concentration (DC50) came to 22 nM. At CRBN, this compound yielded an AC50 of 1940 nM.
For `Cc1ccc(N2CCC(=O)NC2=O)cc1CNC(=O)CCCCN(C)Cc1ccc(-c2cc3c(-c4cc(F)cc(NC(=O)c5ccc(C(C)(C)O)cc5F)c4C)ncnc3[nH]2)cc1` [Compound 08, N-(3-(6-(4-(((5-((5-(2,4-dioxotetrahydropyrimidin-1(2H)-yl)-2-methylbenzyl)amino)-5-oxopentyl)(methyl)amino)methyl)phenyl)-7H-pyrrolo[2,3-d]pyrimidin-4-yl)-5-fluoro-2-methylphenyl)-2-fluoro-4-(2-hydroxypropan-2-yl)benzamide], on BTK, the “BTK degradation Amax” value stood at 55.1% and the 50% degradation concentration (DC50) is over 3330 nM. Further, the activity on CRBN was half-maximal at 2100 nM (AC50).
`COc1cc(C(=O)N2CCC(OC3CCN(Cc4ccc(-c5cc6c(-c7cc(F)cc(NC(=O)c8ccc(C(C)(C)O)cc8F)c7C)ncnc6[nH]5)cc4)CC3)CC2)ccc1N1CCC(=O)NC1=O` [Compound 24, N-(3-(6-(4-((4-((1-(4-(2,4-Dioxotetrahydropyrimidin-1(2H)-yl)-3-methoxybenzoyl)piperidin-4-yl)oxy)piperidin-1-yl)methyl)phenyl)-7H-pyrrolo[2,3-d]pyrimidin-4-yl)-5-fluoro-2-methylphenyl)-2-fluoro-4-(2-hydroxypropan-2-yl)benzamide]: on BTK, the “BTK degradation Amax” value is given as 55.7% and the DC50 was 24 nM. At CRBN, the activity was half-maximal at 5190 nM (AC50).
The matching figures for `Cc1c(NC(=O)N2CC(O)(CC(C)(C)C)C2)cc(F)cc1-c1ncnc2[nH]c(-c3ccc(OCCCN4CCN(C(=O)COc5ccc(Cl)c(N6CCC(=O)NC6=O)c5)CC4)nc3)cc12` [Compound 13, N-(3-(6-(6-(3-(4-(2-(4-chloro-3-(2,4-dioxotetrahydropyrimidin-1(2H)-yl)phenoxy)acetyl)piperazin-1-yl)propoxy)pyridin-3-yl)-7H-pyrrolo[2,3-d]pyrimidin-4-yl)-5-fluoro-2-methylphenyl)-3-hydroxy-3-neopentylazetidine-1-carboxamide]: 4.6%, 3.7 nM and 575 nM.
As to `Cc1c(NC(=O)N2C[C@H](CC(C)C)[C@@H](O)C2)cc(F)cc1-c1ncnc2[nH]c(-c3ccc(CN4CCC(OC5CCN(CCn6cccc(CN7CCC(=O)NC7=O)c6=O)CC5)CC4)cc3)cc12` [Compound 35, (3R,4S)—N-(3-(6-(4-((4-((1-(2-(3-((2,4-dioxotetrahydropyrimidin-1(2H)-yl)methyl)-2-oxopyridin-1(2H)-yl)ethyl)piperidin-4-yl)oxy)piperidin-1-yl)methyl)phenyl)-7H-pyrrolo[2,3-d]pyrimidin-4-yl)-5-fluoro-2-methylphenyl)-3-hydroxy-4-isobutylpyrrolidine-1-carboxamide], at BTK, the “BTK degradation Amax” value is given as 6.6% and the DC50 was found to be 2.1 nM. The AC50 at CRBN came out at 742 nM.
Turning to `Cc1c(NC(=O)c2ccc(C(C)(C)O)cc2F)cc(F)cc1-c1ncnc2[nH]c(-c3ccc(CN4CCC5(CC4)CN(CCCc4ccc(N6CCC(=O)NC6=O)cc4)CCO5)cc3)cc12` [Compound 20, N-(3-(6-(4-((4-(3-(4-(2,4-Dioxotetrahydropyrimidin-1(2H)-yl)phenyl)propyl)-1-oxa-4,9-diazaspiro[5.5]undecan-9-yl)methyl)phenyl)-7H-pyrrolo[2,3-d]pyrimidin-4-yl)-5-fluoro-2-methylphenyl)-2-fluoro-4-(2-hydroxypropan-2-yl)benzamide], on BTK, the “BTK degradation Amax” value came to 37.1% and it took 27.7 nM to reach half-maximal degradation (DC50). This compound registered a concentration at half-maximal activity (AC50) on CRBN of over 100000 nM.
In the case of `Cc1c(NC(=O)c2ccc(C(C)(C)O)cc2F)cc(F)cc1-c1ncnc2[nH]c(-c3ccc(CN(C)CCCNC(=O)COc4cccc(N5CCC(=O)NC5=O)c4)cc3)cc12` [Compound 12, N-(3-(6-(4-(((3-(2-(3-(2,4-dioxotetrahydropyrimidin-1(2H)-yl)phenoxy)acetamido)propyl)(methyl)amino)methyl)phenyl)-7H-pyrrolo[2,3-d]pyrimidin-4-yl)-5-fluoro-2-methylphenyl)-2-fluoro-4-(2-hydroxypropan-2-yl)benzamide], at BTK, the “BTK degradation Amax” value is 2.3% and the DC50 came to 10.7 nM. At CRBN, the activity was half-maximal at 7160 nM (AC50).
For the compound `Cc1c(NC(=O)c2ccc(C(C)(C)O)cc2F)cc(F)cc1-c1ncnc2[nH]c(-c3ccc(CN4CCC(OC5CCN(CCn6cccc(CN7CCC(=O)NC7=O)c6=O)CC5)CC4)cc3)cc12` [Compound 33, N-(3-(6-(4-((4-((1-(2-(3-((2,4-dioxotetrahydropyrimidin-1(2H)-yl)methyl)-2-oxopyridin-1(2H)-yl)ethyl)piperidin-4-yl)oxy)piperidin-1-yl)methyl)phenyl)-7H-pyrrolo[2,3-d]pyrimidin-4-yl)-5-fluoro-2-methylphenyl)-2-fluoro-4-(2-hydroxypropan-2-yl)benzamide], on BTK, the “BTK degradation Amax” value worked out at 6.1% and the half-maximal degradation concentration (DC50) was 2.1 nM. At CRBN, this compound registered an AC50 of 915 nM.
On to `Cc1c(NC(=O)c2ccc(C(C)(C)O)cc2F)cc(F)cc1-c1ncnc2[nH]c(-c3ccc(CN4CCN(C(=O)N5CCN(CCC#Cc6ccc(N7CCC(=O)NC7=O)cc6)CC5)CC4)cc3)cc12` [Compound 23, N-(3-(6-(4-((4-(4-(4-(4-(2,4-Dioxotetrahydropyrimidin-1(2H)-yl)phenyl)but-3-yn-1-yl)piperazine-1-carbonyl)piperazin-1-yl)methyl)phenyl)-7H-pyrrolo[2,3-d]pyrimidin-4-yl)-5-fluoro-2-methylphenyl)-2-fluoro-4-(2-hydroxypropan-2-yl)benzamide], for which, on BTK, the “BTK degradation Amax” value was 9.6% and the DC50 was 2.8 nM. In addition, at CRBN, the AC50 is over 50500 nM.
Turning to `Cc1ccc(S(=O)(=O)NCCCCCNCc2ccc(-c3cc4c(-c5cc(F)cc(NC(=O)c6ccc(C(C)(C)O)cc6F)c5C)ncnc4[nH]3)cc2)cc1N1CCC(=O)NC1=O` [Compound 18, N-(3-(6-(4-(((5-(3-(2,4-dioxotetrahydropyrimidin-1(2H)-yl)-4-methylphenylsulfonamido)pentyl)amino)methyl)phenyl)-7H-pyrrolo[2,3-d]pyrimidin-4-yl)-5-fluoro-2-methylphenyl)-2-fluoro-4-(2-hydroxypropan-2-yl)benzamide], on BTK, the “BTK degradation Amax” value is on record as 7.6% and half-maximal degradation (DC50) was put at 307 nM. The compound further came in with an AC50 on CRBN of 3090 nM.
`Cc1c(NC(=O)c2ccc(C(C)(C)O)cc2F)cc(F)cc1-c1ncnc2[nH]c(-c3ccc(CN4CCN(CCNC(=O)COc5cccc(N6CCC(=O)NC6=O)c5)CC4)cc3)cc12` [Compound 09, N-(3-(6-(4-((4-(2-(2-(3-(2,4-dioxotetrahydropyrimidin-1(2H)-yl)phenoxy)acetamido)ethyl)piperazin-1-yl)methyl)phenyl)-7H-pyrrolo[2,3-d]pyrimidin-4-yl)-5-fluoro-2-methylphenyl)-2-fluoro-4-(2-hydroxypropan-2-yl)benzamide]: on BTK, the “BTK degradation Amax” value amounted to 3.9% and the 50% degradation concentration (DC50) came to 3.2 nM. Further, half-maximal activity on CRBN (AC50) was put at 1400 nM.

These data come from patent publication US20220387602A1, “BIFUNCTIONAL DEGRADERS AND THEIR METHODS OF USE” (NOVARTIS AG, priority 2019, published 2022).
